Test results from publication PMC6487500 (Molecular imaging and biology : MIB : the official …, 2019).

Experiments:
BT474 cells = test: Cell binding assay and specific binding; set-up: species or system human; details: at 60 min
BT474 xenografts = test: Tissue distribution in mice bearing BT474 xenografts; type: in vivo, mouse; details: BT474 xenograft mice, n = 5
[1] = 100 ± 20 μCi i.v., after PET/CT at 1 h

## [68Ga+3].[Cl-].[Cl-].[Cl-] [[^68Ga]GaCl3]
BT474 cells
  specific BT474 cell binding: 18.8 ± 2.5%
BT474 xenografts; [1]
  tissue distribution, contralateral muscle: 1.2 ± 0.4 %ID/g
  tissue distribution, liver: 4.3 ± 1.3 %ID/g
  tissue distribution, tumor uptake: 2.2 ± 1.7 %ID/g
BT474 xenografts; 100 ± 20 μCi i.v., at 1 h
  tissue distribution, lungs: 4.2 ± 2.6 %ID/g
BT474 xenografts; non-blocked, after PET/CT at 1 h
  T/M ratio, tissue distribution: 1.7 ± 0.8
